Data published in US20110052562A1, “BENZIMIDAZOLES AND ANALOGS AS RHO KINASE INHIBITORS” (The Scripps Research Institute, priority 2007, published 2011).

Experiments:
smooth muscle cells = assay: Myosin Light Chain Double Phosphorylation Assay (ppMLC, cell assay); format: cell-based; settings: serum starved smooth muscle cells, compound 1 h, LPA 30 min
Protocol: Myosin Light Chain Double Phosphorylation Assays (ppMLC, cell assay).
Serum starved smooth muscle cells were incubated with compound for 1 h before induction of myosin light chain phosphorylation by LPA for 30 min. Cells were washed and fixed before staining for phosphorylated myosin light chain and DNA. Phosphorylation status was quantitated with the LI-COR Odyssey Imager. […] For example, the IC50 of Example 169 is 6 nM.

N2a cells = assay: Neurite Length Assay (N2a, cell assay); format: cell-based; settings: Mus musculus, neurite retraction induced by 5 uM LPA
Protocol: Neurite Length Assay (N2a, Cell Assay).
N2a cells are maintained in DMEM/FBS at 37 C and 5% CO2. For the experiment the cells were plated on a poly-D-lysine coated 96-well tissue culture plate. After attachment, cell differentiation was induced for 2 days by addition of 10 uM retinoic acid. Cells were treated for 1 h with a dilution of compounds in 0.3% DMSO final concentration before neurite retraction was induced by 5 uM LPA. Cells were stained for tubulin and nuclei and images were acquired on a INCell 1000 workstation. Images were analyzed using the developer toolbox and neurite length was quantitated. […] For example, the IC50 of Example 169 is 4 nM.

Rhok2 = Rhok2 (Homo sapiens, UniProt O75116); assay: Enzymatic Rho kinase assay (Kinase-Glo luminescence, S6 peptide substrate); format: biochemical; settings: Rhok2 enzyme, 2 hours at 25 degrees Celsius
Protocol: Enzymatic Rho kinase (ROCK I and ROCK II) Assays.
The assay is based on ability of Rhok2 to phosphorylate a specific peptide sequence derived from its substrate—ribosomal protein S6 (amino acid residues 229-239, (LCB-[…]-NH2)). Rhok2 uses ATP as a donor of phosphate for the phosphorylation of the substrate, which leads to the depletion of ATP in the reaction mix. An assay kit (“Kinase-Glo”, Promega) was used to quantify enzyme activity. Using this kit, residual amounts of ATP are measured by a secondary enzymatic reaction, through which luciferase utilizes the remaining ATP to produce luminescence. Luminescent signal is directly proportional to ATP concentration and inversely proportional to Rhok2 activity.
This dose response assay was conducted in 1536 well plate format. Each concentration was tested nominally in triplicate. […] Plates were incubated for 10 minutes and luminescence was read on Perkin-Elmer Viewlux for 60 seconds. […] The percent inhibition for each well has been calculated as follows: % inhibition=(test compound−median_negative_control)/(median_positive_control−median_negative_control)*100 where the positive control is Y-27632 (13 micromolar) and negative control is DMSO only. […]

Rhok2, sequence (O75116 whole entry): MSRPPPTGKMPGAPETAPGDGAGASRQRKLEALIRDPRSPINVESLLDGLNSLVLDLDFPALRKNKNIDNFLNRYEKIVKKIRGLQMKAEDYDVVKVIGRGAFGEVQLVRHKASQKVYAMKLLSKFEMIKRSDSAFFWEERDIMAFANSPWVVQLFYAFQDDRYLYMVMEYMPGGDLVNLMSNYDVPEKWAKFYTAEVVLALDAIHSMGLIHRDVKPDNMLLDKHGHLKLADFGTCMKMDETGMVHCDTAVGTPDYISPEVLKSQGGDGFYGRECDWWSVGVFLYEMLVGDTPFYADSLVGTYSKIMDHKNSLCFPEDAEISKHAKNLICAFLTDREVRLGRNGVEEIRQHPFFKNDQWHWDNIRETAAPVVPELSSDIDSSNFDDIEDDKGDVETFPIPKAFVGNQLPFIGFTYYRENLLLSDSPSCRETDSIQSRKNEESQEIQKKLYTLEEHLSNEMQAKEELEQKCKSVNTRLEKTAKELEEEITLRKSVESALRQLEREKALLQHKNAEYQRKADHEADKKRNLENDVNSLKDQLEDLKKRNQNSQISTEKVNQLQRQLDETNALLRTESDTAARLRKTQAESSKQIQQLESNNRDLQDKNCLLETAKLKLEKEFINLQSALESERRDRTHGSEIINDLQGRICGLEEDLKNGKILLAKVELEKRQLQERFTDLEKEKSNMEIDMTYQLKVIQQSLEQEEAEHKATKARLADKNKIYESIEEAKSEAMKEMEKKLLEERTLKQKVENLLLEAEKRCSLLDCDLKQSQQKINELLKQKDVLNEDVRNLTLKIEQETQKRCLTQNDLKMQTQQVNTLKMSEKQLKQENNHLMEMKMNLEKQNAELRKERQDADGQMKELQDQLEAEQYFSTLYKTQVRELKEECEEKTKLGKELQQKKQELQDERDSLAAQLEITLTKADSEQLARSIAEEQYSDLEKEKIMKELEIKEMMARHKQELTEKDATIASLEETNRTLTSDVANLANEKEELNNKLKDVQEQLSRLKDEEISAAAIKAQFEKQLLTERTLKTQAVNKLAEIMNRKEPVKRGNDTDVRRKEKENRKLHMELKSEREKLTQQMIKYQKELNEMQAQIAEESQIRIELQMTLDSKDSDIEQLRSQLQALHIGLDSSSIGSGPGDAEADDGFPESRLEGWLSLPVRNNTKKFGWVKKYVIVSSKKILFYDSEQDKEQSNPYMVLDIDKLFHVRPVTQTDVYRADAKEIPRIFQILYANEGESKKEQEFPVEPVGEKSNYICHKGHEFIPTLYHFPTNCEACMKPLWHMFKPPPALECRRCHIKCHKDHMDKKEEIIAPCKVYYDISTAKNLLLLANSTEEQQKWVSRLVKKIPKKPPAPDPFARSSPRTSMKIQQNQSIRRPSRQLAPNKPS

COc1ccc2c(c1)CC(c1nc3cc(-c4ccncc4)cc(F)c3[nH]1)CO2 (stereo not drawn) [Example 169, 7-fluoro-2-(6-methoxychroman-3-yl)-5-(pyridin-4-yl)-1H-benzo[d]imidazole]
IC50 (smooth muscle cells): 6 nM
IC50 (N2a cells): 4 nM
IC50 (Rhok2): 6 nM
